The results in this text go back to patent US20160016907A1, “PYRIDINE DERIVATIVES AS MUSCARINIC M1 RECEPTOR POSITIVE ALLOSTERIC MODULATORS” (PFIZER INC., priority 2014, published 2016).

The target in the assay is T1, human M1 muscarinic acetylcholine receptors (Homo sapiens, UniProt P11229).
T1 sequence (P11229 1-460): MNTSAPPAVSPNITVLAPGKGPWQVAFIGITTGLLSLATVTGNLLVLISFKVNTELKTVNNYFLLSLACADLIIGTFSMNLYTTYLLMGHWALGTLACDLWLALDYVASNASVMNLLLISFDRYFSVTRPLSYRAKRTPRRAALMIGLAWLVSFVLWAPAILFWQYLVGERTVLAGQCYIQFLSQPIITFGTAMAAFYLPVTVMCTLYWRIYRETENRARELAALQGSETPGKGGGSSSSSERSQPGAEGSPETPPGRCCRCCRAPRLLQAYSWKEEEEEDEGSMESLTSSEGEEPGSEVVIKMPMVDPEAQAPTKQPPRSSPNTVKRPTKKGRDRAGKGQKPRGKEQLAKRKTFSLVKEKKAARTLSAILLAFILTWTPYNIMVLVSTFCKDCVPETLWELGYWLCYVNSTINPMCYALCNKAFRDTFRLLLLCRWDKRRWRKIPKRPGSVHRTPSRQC
Description: M1 FLIPR assay (PAM, intracellular calcium). The assay is classed as cell-based. The following applies: potentiation of EC10-EC30 acetylcholine, values marked a: geometric mean of ≧7 determinations, read-out: M1 PAM Inflection Point (μM) Geometric mean of 2-6 determinations (unless otherwise indicated).
Consider `COc1cnc(C(=O)N[C@H]2CCOC[C@@H]2O)cc1Cc1ccc(-c2cscn2)cc1` [Example 68, N-[(3R,4S)-3-hydroxytetrahydro-2H-pyran-4-yl]-5-methoxy-4-[4-(1,3-thiazol-4-yl)benzyl]pyridine-2-carboxamide], for which the EC50 stood at 0.074 µM. Take `Cc1nc(-c2ccc(Cc3cc(C(=O)N[C@H]4CCOC[C@@H]4O)ncc3C)cc2)cs1` [Example 69, N-[(3R,4S)-3-hydroxytetrahydro-2H-pyran-4-yl]-5-methyl-4-[4-(2-methyl-1,3-thiazol-4-yl)benzyl]pyridine-2-carboxamide]: the EC50 was determined as 0.048 µM.

For the compound `COc1cnc(C(=O)N[C@H]2CCCC[C@@H]2O)cc1Cc1ccc(-n2cccn2)cc1` [Example 70, N-[(1S,2S)-2-hydroxycyclohexyl]-5-methoxy-4-[4-(1H-pyrazol-1-yl)benzyl]pyridine-2-carboxamide], the EC50 worked out at 0.104 µM.

Turning to `COc1cnc(C(=O)N[C@H]2CCCC[C@@H]2O)cc1Cc1ccc(-c2cocn2)cc1` [Example 71, N-[(1S,2S)-2-hydroxycyclohexyl]-5-methoxy-4-[4-(1,3-oxazol-4-yl)benzyl]pyridine-2-carboxamide], the EC50 was 0.125 µM.

For the compound `COc1cnc(C(=O)N[C@H]2CCCC[C@@H]2O)cc1Cc1ccc(-c2coc(C)n2)cc1` [Example 72, N-[(1S,2S)-2-hydroxycyclohexyl]-5-methoxy-4-[4-(2-methyl-1,3-oxazol-4-yl)benzyl]pyridine-2-carboxamide], the EC50 came to 0.142 µM.
